Measurements published in patent US6875757B2, “LPA receptor agonists and antagonists and methods of use” (University of Tennessee Research Foundation, priority 2000, dated 2005).
Where a name gives a salt, the structure may show the parent alone. Read-outs that look alike come from different tables or passages of the source.

Key:
[1] = test system: PC-3 prostate cancer cell line; test: Cytotoxicity / growth inhibition (SRB), PC-3; format: cell-based; details: 96 hours drug exposure, read-out: IC50 ± SEM, PC-3
Procedure: (§1) Cells were removed from stock flasks using trypsin, centrifuged, resuspended in fresh media, and plated at a density of approximately 2,000 cells/well in 96-well culture plates. Final drug concentrations ranged from 0.05 to either 10 or 50 μM. Control experiments with no drug added (negative control) and 5-fluorouracil added (positive control) were performed in parallel. Media was removed and replaced at 48 hours to minimize the effects of drug degradation during the course of the experiment. After 96 hours drug exposure, cells were fixed by the addition of cold 50% trichloroacetic acid (TCA) and incubation at 4° C. for 1 hour. Fixed cells were stained with sulforhodamine B (SRB), and cell number was determined by comparison of absorbance at 540 nm, as compared to a standard curve of cell number versus absorbance. Experiments were performed in duplicate.

[2] = test system: DU-145 prostate cancer cell line; test: Cytotoxicity / growth inhibition (SRB), DU145; format: cell-based; details: read-out: IC50 ± SEM, DU145
Procedure: as §1

[3] = test system: LNCaP prostate cancer cell line; test: Cytotoxicity / growth inhibition (SRB), LNCaP; format: cell-based; details: 96 hours drug exposure, read-out: IC50 ± SEM, LNCaP
Procedure: as §1

PSP24 PLGFR = PSP24 PLGFR (Xenopus laevis, UniProt P79945); test: Xenopus oocyte assay: LPA-induced oscillatory chloride currents (two-electrode voltage clamp); format: cell-based; details: for inhibition of LPA-induced chloride currents: Xenopus oocytes, extracellular application; for reversibility of inhibition of LPA-induced chloride currents: after washing the oocyte; for threshold to elicit a response alone: compound alone, agonist response
Sequence of PSP24 PLGFR (P79945 whole entry): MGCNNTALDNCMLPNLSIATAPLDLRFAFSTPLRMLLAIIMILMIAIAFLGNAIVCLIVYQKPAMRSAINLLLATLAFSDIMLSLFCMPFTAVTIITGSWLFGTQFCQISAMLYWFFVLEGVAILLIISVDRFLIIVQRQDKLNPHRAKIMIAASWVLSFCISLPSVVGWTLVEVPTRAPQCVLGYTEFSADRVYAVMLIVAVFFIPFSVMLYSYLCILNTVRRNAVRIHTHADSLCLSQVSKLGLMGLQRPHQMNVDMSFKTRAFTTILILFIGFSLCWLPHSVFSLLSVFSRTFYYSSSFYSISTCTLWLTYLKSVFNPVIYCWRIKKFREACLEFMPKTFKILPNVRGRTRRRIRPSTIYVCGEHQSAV
Procedure: Xenopus oocytes which endogenously express PSP24 PLGFR were used to screen the newly designed and synthesized compounds for their LPA inhibitory activity.
(§2) Oocytes were obtained from xylazine-anesthetized adult Xenopus laevis frogs (Carolina Scientific, Burlington, N.C.) under aseptic conditions and prepared for experiment. […] Oocytes were kept in Barth's solution in an incubator between 17-20° C. and were used for 2-7 days after isolation.
(§3) Electrophysiological recordings were carried out using a standard two-electrode voltage-clamp amplifier holding the membrane potential at −60 mV (GeneClamp 500, Axon Instruments, Calif.). […] Membrane currents were recorded with a NIC-310 digital oscilloscope (Nicolet, Madison, Wis.). Applications were made at intervals of 15 mins (minimum) to allow for the appropriate washout and recovery from desensitization.
as §2
as §3, with “CA).” for “Calif.).”

human Edg-4 = target: T1, human Edg-4 (Homo sapiens, UniProt Q9HBW0); test: Ca2+ responses (Fura-2) in RH7777 cells expressing Edg-4 (stable or transient); format: cell-based
T1 construct: expressed in transfected cells
T1 sequence (Q9HBW0 whole entry): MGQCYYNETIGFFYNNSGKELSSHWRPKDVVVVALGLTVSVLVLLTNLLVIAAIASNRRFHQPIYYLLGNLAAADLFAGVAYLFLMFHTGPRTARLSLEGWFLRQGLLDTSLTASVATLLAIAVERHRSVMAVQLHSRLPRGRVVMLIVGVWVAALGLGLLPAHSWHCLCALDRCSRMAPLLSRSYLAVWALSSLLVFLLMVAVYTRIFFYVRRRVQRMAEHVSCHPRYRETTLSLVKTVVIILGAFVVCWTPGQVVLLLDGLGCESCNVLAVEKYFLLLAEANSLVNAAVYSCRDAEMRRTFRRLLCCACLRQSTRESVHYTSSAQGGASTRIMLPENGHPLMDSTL
Description: RH7777 cells, stably expressing human Edg-4, were kindly provided by Dr. Kevin Lynch (University of Virginia, Charlottesville, Va.). Flag-tagged cDNA's encoding human Edg-4 and -7 inserted into the pCDNA3 expression plasmid (Invitrogen, Carlsbad, Calif.), were a generous gift from Dr. Junken Aoki (University of Tokyo, Tokyo, Japan). RH7777 and NIH3T3 cells were obtained from the American Type Culture Collection (Manassas, Va.). HEY cells were provided by Dr. Lisa Jennings (University of Tennessee, Memphis). All cell lines were maintained in Dulbecco's Modified Eagle's Medium (DMEM) containing 10% FBS and 2 mM glutamine. Oocytes were obtained from adult Xenopus laevis frogs as previously described (Tigyi et al., 1999).
(§4) RH7777 cells were transfected with the cDNA constructs encoding human Edg-2, Edg-4, or Edg-7 and then were subcloned into the pCDNA3 expression vector using the Cytofectene transfection reagent according to the manufacturers' protocol. Transfected cells were selected in DMEM containing 10% FBS and 1 mg/ml geneticin. Resistant cells were collected and subcloned by limiting dilution. The resulting clones were then screened using functional assays and RT-PCR analysis. Data are representative of three individual clones.
RH7777 cells were plated on polylysine-coated glass coverslips (Bellco, Vineland, N.J.) one day prior to transfection. The following day, cells were transfected overnight (16-18 hr) with 1 μg of plasmid DNA mixed with 6 μl of Cytofectene. The cells were then rinsed twice with DMEM and cultured in DMEM containing 10% FBS. The next day, the cells were rinsed with DMEM and serum was withdrawn for a minimum of 2 hr prior to monitoring intracellular Ca^2+.

human Edg-7 = target: T2, human Edg-7 (Homo sapiens, UniProt Q9UBY5); test: Ca2+ responses (Fura-2) in RH7777 cells expressing Edg-7; format: cell-based; details: for effect on LPA-elicited Ca2+ responses: 250 nM LPA 18:1 mixed with 500 nM lipid
T2 construct: Flag; expressed in transfected cells
T2 sequence (Q9UBY5 1-353): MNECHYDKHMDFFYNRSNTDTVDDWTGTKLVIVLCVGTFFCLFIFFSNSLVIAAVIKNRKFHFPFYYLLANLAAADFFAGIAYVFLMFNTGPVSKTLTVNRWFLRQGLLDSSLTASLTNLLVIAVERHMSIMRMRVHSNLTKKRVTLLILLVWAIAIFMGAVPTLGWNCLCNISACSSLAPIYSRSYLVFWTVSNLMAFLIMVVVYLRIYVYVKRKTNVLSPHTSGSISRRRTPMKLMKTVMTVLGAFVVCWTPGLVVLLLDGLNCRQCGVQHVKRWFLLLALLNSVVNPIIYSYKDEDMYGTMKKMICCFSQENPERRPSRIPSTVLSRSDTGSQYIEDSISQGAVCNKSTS
Procedure: as §4

human Edg-2 = target: T3, human Edg-2 (Homo sapiens, UniProt Q92633); test: Ca2+ responses (Fura-2) in RH7777 cells expressing Edg-2; format: cell-based
T3 construct: expressed in transfected cells
T3 sequence (Q92633 whole entry): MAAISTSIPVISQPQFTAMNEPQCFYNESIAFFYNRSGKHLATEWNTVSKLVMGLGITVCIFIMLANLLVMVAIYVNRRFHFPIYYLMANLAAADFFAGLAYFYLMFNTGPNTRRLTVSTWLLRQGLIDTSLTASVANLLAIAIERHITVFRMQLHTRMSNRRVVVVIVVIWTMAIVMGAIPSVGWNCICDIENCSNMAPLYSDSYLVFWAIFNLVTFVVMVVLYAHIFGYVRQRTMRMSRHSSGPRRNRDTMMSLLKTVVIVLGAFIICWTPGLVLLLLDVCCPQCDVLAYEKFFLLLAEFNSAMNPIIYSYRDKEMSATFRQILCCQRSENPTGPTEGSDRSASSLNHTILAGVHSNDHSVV
Procedure: as §4

HEY ovarian cancer cells = test: Ca2+ responses in HEY ovarian cancer cells; format: cell-based; details: 100 nM LPA 18:1 mixed with 1 μM lipid
Description: Likewise, PA 8:0 inhibited the Ca^2+ response to 6% of control, whereas PA 18:1 had no effect. HEY express mRNA transcripts for Edg-1, -2, -5, -7 receptors (FIG. 34C).

[4] = Homo sapiens, DU-145, 96 hours drug exposure
[5] = LPA 18:1 near the EC50 combined with compound 108
[6] = 250 nM LPA 18:1 mixed with 10 μM lipid
[7] = alone, concentrations as high as 10 μM
[8] = mixture of LPA 8:0 and LPA 18:1

CCCCCCCCCCCCCCCCCCNC(=O)C(N)CO.O=C(O)C(F)(F)F (centres unmarked)
melting point: 170 to 172 °C

CCCCCCCCCCCCCCNC(=O)C(CO)NC(=O)OC(C)(C)C (centres unmarked) [Compound 27, tert-Butyl N-[1-(hydroxymethyl)-2-oxo-2-(tetradecylamino)ethyl]carbamate]
IC50 [1]: > 50 µM
melting point: 59 to 62 °C
IC50 [2, 4]: 19.7 ± 6 µM
IC50 ([3]; Homo sapiens, LNCaP): 10.9 ± 2.7 µM

CCCCCCCCCCCCCCNC(=O)C(N)CO.O=C(O)C(F)(F)F (centres unmarked) [Compound 36, N-1-tetradecyl-2-amino-3-hydroxypropanamide trifluoroacetate]
inhibition of LPA-induced chloride currents (PSP24 PLGFR): best inhibitor among the non-phosphorylated derivatives
melting point: 168 to 171 °C

CCCCCCCCCCCCCCOc1ccc(NC(=O)C(N)CO)cc1 (centres unmarked) [Compound 38, N-1-[4-(tetradecyloxy)phenyl]-2-amino-3-hydroxypropanamide trifluoroacetate]
IC50 ([2]; 96 hours drug exposure): 38.9 ± 8.9 µM

CCCCCCCCCCCCCCNC(=O)C(COP(=O)(OCc1ccccc1)OCc1ccccc1)NC(=O)OC(C)(C)C (centres unmarked) [Compound 51, tert-Butyl N-[1-{([di(benzyloxy)phosphoryl]oxy)methyl}-2-oxo-2-(tetradecylamino)ethyl]carbamate]
IC50 [1]: 25.4 ± 3.6 µM
melting point: 33 to 35 °C
IC50 [2, 4]: 8.1 ± 1.3 µM
IC50 ([3]; Homo sapiens, LNCaP): 19.9 ± 6.4 µM

CCCCCCCCCCCCCCNC(=O)C(N)COP(=O)(O)O (centres unmarked) [Compound 56, 2-Amino-3-oxo-3-(tetradecylamino)propyl dihydrogen phosphate]
inhibition of LPA-induced chloride currents (PSP24 PLGFR): inhibitors of LPA-induced chloride current
reversibility of inhibition of LPA-induced chloride currents (PSP24 PLGFR): reversible

CCCCCCCCCCCCCCCCCCNC(=O)C(N)COP(=O)(O)O (centres unmarked) [Compound 57, 2-Amino-3-(octadecylamino)-3-oxopropyl dihydrogen phosphate]
inhibition of LPA-induced chloride currents (PSP24 PLGFR): inhibitors of LPA-induced chloride current
reversibility of inhibition of LPA-induced chloride currents (PSP24 PLGFR): reversible

CCCCCCCCCCCCOCC(COP(=O)(O)O)OP(=O)(O)O (centres unmarked) [Compound 67, 1,2-(3-Dodecyloxypropane)-bis(dihydrogen phosphate)]
threshold to elicit a response alone (PSP24 PLGFR): ~1000 nM
IC50 [3]: 25.2 ± 12.3 µM

CCCCCCCCCCCCCCCCOCC(COP(=O)(O)O)OP(=O)(O)O (centres unmarked) [Compound 68, 1,2-(3-Hexadecyloxypropane)-bis(dihydrogen phosphate)]
threshold to elicit a response alone (PSP24 PLGFR): ~10 nM
IC50 [3]: 29.3 ± 21.7 µM

CCCCCCCCCCCCCC(=O)OCC(COP(=O)(O)O)OP(=O)(O)O (centres unmarked) [Compound 85, 1,2-(3-Tetradecanoyloxypropane)-bis(dihydrogen phosphate)]
threshold to elicit a response alone (PSP24 PLGFR): ~100 nM
IC50 [3]: 11.6 ± 10.3 µM

CCCCCCCCCCCCCCCCCC(=O)OCC(COP(=O)(O)O)OP(=O)(O)O (centres unmarked) [Compound 89, 1,2-(3-Octadecanoyloxypropane)-bis(dihydrogen phosphate)]
inhibition of LPA-induced response (PSP24 PLGFR; against 2 nM LPA, compound concentration not given): 59%

CCCCCCCCCCCCCCCCCCC(=O)OCC(COP(=O)(O)O)OP(=O)(O)O (centres unmarked) [Compound 90, 1,2-(3-Nonadecanoyloxypropane)-bis(dihydrogen phosphate)]
IC50 ([2]; 96 hours drug exposure): > 50 µM

CCCCCCCCCCCCCCCCCCCC(=O)OCC(COP(=O)(O)O)OP(=O)(O)O (centres unmarked) [Compound 91, 1,2-(3-Icosanoyloxypropane)-bis(dihydrogen phosphate)]
IC50 ([2]; 96 hours drug exposure): 42.2 ± 1.9 µM

CCCCCCCCCCCCCCCCCCCCCC(=O)OCC(COP(=O)(O)O)OP(=O)(O)O (centres unmarked) [Compound 92, 1,2-(3-Docosanoyloxypropane)-bis(dihydrogen phosphate)]
inhibition of LPA-induced chloride currents (PSP24 PLGFR): inhibitors of LPA-induced chloride current
reversibility of inhibition of LPA-induced chloride currents (PSP24 PLGFR): reversible

CCCCCCCCCCCCOP(=O)(O)O [Compound 108, Phosphoric Acid Monododecyl Ester]
Ca2+ responses, % of control (human Edg-4; [5]): about 148 % of control
Ca2+ responses, % of control (human Edg-7; [5]): ~56 % of control
Ca2+ responses, % of control (human Edg-2; [5]): about 63 % of control

O=c1[nH]cc(F)c(=O)[nH]1 [Fluorouracil, 5-fluorouracil]
IC50 [1]: 10.2 ± 4.1 µM
IC50 [2, 4]: 6.8 ± 3.3 µM
IC50 ([3]; Homo sapiens, LNCaP): 2.8 ± 1.6 µM

CCCCCCCCCCCCC/C=C/[C@@H](O)[C@@H](N)COP(=O)(O)O [SPP (13:0), sphingosine-1-phosphate]
IC50 [1]: > 50 µM
IC50 [2, 4]: > 10 µM

Phosphatidic acid [PA 18:1]
Ca2+ responses, % of control (human Edg-4; stable Edg-4, 500 nM LPA 18:1 mixed with 5 μM lipid): 137 % of control
effect on LPA-elicited Ca2+ response (HEY ovarian cancer cells): had no effect
effect on LPA-elicited Ca2+ responses (human Edg-7): no longer inhibitors of Edg-7
decrease of the Ca2+ response (human Edg-2; [6]): 18%

diacyl glycerol [DAG 8:0]
effect on LPA-elicited Ca2+ responses (human Edg-7): significantly increased the Ca^2+ responses
Ca2+ response, % of control (human Edg-2; [6]): 64 % of control

diacyl glycerol [DAG 18:1]
effect on LPA-elicited Ca2+ responses (human Edg-7): did not have an inhibitory effect
inhibitory effect on LPA-elicited Ca2+ response (human Edg-2; [6]): no longer had an inhibitory effect

lysophosphatidic acid [LPA 8:0]
Ca2+ response elicited alone (human Edg-4; [7]): unable to elicit Ca^2+ responses
effect of mixture with LPA 18:1 on Ca2+ responses (human Edg-4; mixture of LPA 8:0 and LPA 18:1, stable cells): not effected
effect on LPA-elicited Ca2+ responses (human Edg-7): had no effect
Ca2+ response elicited alone (human Edg-7; [7]): unable to elicit Ca^2+ responses
effect of mixture with LPA 18:1 on Ca2+ responses (human Edg-7; [8]): not effected
Ca2+ response elicited alone (human Edg-2; [7]): unable to elicit Ca^2+ responses
effect of mixture with LPA 18:1 on Ca2+ responses (human Edg-2; [8]): not effected

lysophosphatidic acid [LPA (18:1)]
EC50 (PSP24 PLGFR; LPA alone, FIG. 37, read-out: EC50 of LPA alone (positive control solution)): 25 nM
IC50 [1]: 28.5 ± 6.3 µM
EC50 (human Edg-2; stable Edg-2 expressing cells, read-out: EC50, Ca2+ transients): 378 ± 53 nM
